{"source": "patent EP3045477B1", "about": "“Method for reducing the migration of photoinitiators and their degradation products in UV curable coatings” (IOT - Innovative Oberflächentechnologien GmbH, priority 2015, dated 2016)", "origin": "cited, not measured here", "settings": "listed limit, Verordnung (EU) 10/2011"}
{"smiles": "Cc1cc(C(C)(C)C)c(O)c(C(C)(C)C)c1", "note": "[Butylhydroxy toluol, Butylhydroxytoluol]", "values": [{"measurement": "spezifische Migrationslimit", "value": 3, "unit": "mg/kg"}]}
